According to patent publication US20230322724A1, “HETEROCYCLIC COMPOUNDS AS CBP/EP300 BROMODOMAIN INHIBITORS” (AURIGENE ONCOLOGY LIMITED, priority 2020, published 2023):
Where two headings read alike, the source gives them in different places.

Columns and labels:
[1] = target: T1, recombinant BRD4 FL bromodomain (Homo sapiens, UniProt O60885); test: BRD4 FL TR-FRET displacement assay; type: binding; details: for inhibition at 10 µM: read-out: % Inhibition (10 μM); for IC50: dose-response, read-out: IC50 (group A, B, C)
T1 construct: fused on or other part: 6xHis tag, inferred from detection with Mab ANTI 6HIS-XL665
Protocol: The potency of compounds to inhibit BRD4 FL enzyme was tested in a TR-FRET displacement assay using recombinant BRD4 FL bromodomain obtained In-house. The assay buffer was 50 mM HEPES (pH 7.5), 50 mM NaCl, 500 μM CHAPS. 10 nM of BRD4 FL & 300 nM of Biotinylated Acetyl histone H4 (Lys 5, 8, 12, 16) (Millipore, USA) was incubated at room temperature for 30 minutes, the reaction was initiated by adding the pre-incubated enzyme ligand mixture to the test compounds. After 30 min incubation, the reaction was stopped by the addition of stop mix containing 1 nM of Europium Streptavidin cryptate (Cisbio, USA) and 5 nM of Mab ANTI 6HIS-XL665 (Cisbio, USA) dilutes in assay buffer containing 2.4M Potassium Fluoride. Fluorescence emission of the samples at 665 and 615 nm were measured at an excitation of 340 nm and their ratio was plotted against the compound concentrations to generate dose-response curve. The percent inhibition of the test compounds is calculated using the ratio of enzyme activity controls.
Selected compounds of the present invention were screened in the above-mentioned assay procedures and IC50 values were determined by fitting the dose-response data to sigmoidal curve fitting equation using Graph pad prism software V7.

[2] = target: T2, recombinant CREBBP bromodomain (Homo sapiens, UniProt Q92793); test: CBP TR-FRET displacement assay; type: binding; details: for IC50: dose-response, read-out: IC50 (group A, B, C); for inhibition at 10 µM: compound at 10 μM
T2 construct: recombinant CREBBP bromodomain obtained from BPS Bioscience, USA; purchased BPS Bioscience, USA
How it was run: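 CREBBP bromodomain (50 nM) preincubated 30 min at room temperature with 500 nM biotinylated ligand in HEPES pH 7.5 buffer with TCEP, then 60 min with compound. Eu-anti-His/APC-streptavidin TR-FRET 665/615 nm ratio read; IC50 from sigmoidal dose-response fit.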

T2 sequence (Q92793 1085-1192 limits assumed): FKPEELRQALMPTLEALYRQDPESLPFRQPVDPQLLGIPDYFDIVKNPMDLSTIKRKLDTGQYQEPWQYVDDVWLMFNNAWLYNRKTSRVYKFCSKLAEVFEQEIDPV

Structure (SMILES) | inhibition at 10 µM ([1]; BRD4 FL, compound at 10 μM) | IC50 [2] | IC50 ([1]; BRD4 FL) | other results
COc1cc(N2CCN(C)c3ccc(C(C)=O)cc32)c2cc(C)c(=O)n(C)c2c1 [Example 79, 5-(7-Acetyl-4-methyl-3,4-dihydroquinoxalin-1(2H)-yl)-7-methoxy-1,3-dimethylquinolin-2(1H)-one] | 56% | 51 to 100 nM |  | 
Cc1cc2c(N3CCCN(C)c4cc(-c5cnn(C)c5)c(C#N)cc43)cccc2[nH]c1=O [Example 5] | 48% |  |  | inhibition at 10 µM [2]: 38%
COc1cc(N2CCN(C)c3cc(F)c(S(=O)(=O)NC(C)=O)cc32)c2cc(C)c(=O)n(C)c2c1 [Example 104] | 48% | < 50 nM |  | 
COc1cc(N2CCN(C)c3cc(C4CC=NO4)c(S(N)(=O)=O)cc32)c2cc(C)c(=O)n(C)c2c1 (stereo not drawn) [Example 91, 7-(4,5-Dihydroisoxazol-5-yl)-4-(7-methoxy-1,3-dimethyl-2-oxo-1,2-dihydroquinolin-5-yl)-1-methyl-1,2,3,4-tetrahydroquinoxaline-6-sulfonamide] |  | < 50 nM | 2010 to 5000 nM | 
COc1cc(N2CCN(C)c3ccc(S(C)(=O)=O)cc32)c2cc(C)c(=O)n(C)c2c1 [Example 100] |  | 51 to 100 nM | 2010 to 5000 nM | 
CNS(=O)(=O)c1ccc2c(c1)N(c1cc(OC)cc3c1cc(C)c(=O)n3C)CCN2C [Example 95] |  | < 50 nM | 2010 to 5000 nM | 
Cc1cc2c(N3CCCc4cc(-c5cnn(C)c5)c(C(F)F)cc43)nc(N3CCC(O)C3)cc2n(C)c1=O (stereo not drawn) [Example 208] |  | < 50 nM | 2010 to 5000 nM | 
CN1CCN(c2cccc3c2ccc(=O)n3C)c2cc(C#N)c(-c3cnn(C)c3)cc21 [Example 51] |  |  | 2010 to 5000 nM | inhibition at 10 µM [2]: 99%
Cc1cc2c(N3CCN(C)c4cc(-c5cnn(C)c5)ncc43)cc(OC(C)C)cc2n(C)c1=O [Example 156, 7-Isopropoxy-1,3-dimethyl-5-(1-methyl-7-(1-methyl-1H-pyrazol-4-yl)-2,3-dihydropyrido[3,4-b]pyrazin-4(1H)-yl)quinolin-2(1H)-one] |  | 51 to 100 nM |  | inhibition at 10 µM [1]: 47%
CCC(=O)NS(=O)(=O)c1ccc2c(c1)N(c1cc(OC)cc3c1cc(C)c(=O)n3C)CCN2C [Example 106] | 16% | 51 to 100 nM |  | 
CN1CCN(c2cccc3[nH]c(=O)ccc23)c2cc(C#N)c(-c3cnn(C)c3)cc21 [Example 52] | 35% |  |  | inhibition at 10 µM [2]: 83%
COc1cc(N2CCN(C)c3ccc([S+](C)[O-])cc32)c2cc(C)c(=O)n(C)c2c1 (single isomer, unassigned) [Example 249] |  |  | 2010 to 5000 nM | 
Cc1cc2c(N3CCCc4cc(-c5cnn(C)c5)c(C(F)F)cc43)nc(C3=CCOCC3)cc2n(C)c1=O [Example 241, 5-(7-(Difluoromethyl)-6-(1-methyl-1H-pyrazol-4-yl)-3,4-dihydroquinolin-1(2H)-yl)-7-(3,6-dihydro-2H-pyran-4-yl)-1,3-dimethyl-1,6-naphthyridin-2(1H)-one] | 22% | 51 to 100 nM |  | 
CNC(=O)c1ccc(-c2cc3c(cc2C(F)F)N(c2nc(N4CCOCC4)cc4c2cc(C)c(=O)n4C)CCC3)cn1 [Example 203] |  |  | 2010 to 5000 nM | 
COc1cc(N2CCCc3ccc(NC(C)=O)cc32)c2cc(C)c(=O)n(C)c2c1 [Example 196, N-(7′-methoxy-1′,3′-dimethyl-2′-oxo-1′,2′,3,4-tetrahydro-2H-[1,5′-biquinolin]-7-yl)acetamide] |  |  | 2010 to 5000 nM | 
Cc1cc2c(N3CCCc4cc(-c5cnn(C)c5)c(C(F)F)cc43)nc(-n3ccnc3)cc2n(C)c1=O [Example 204] | 12% |  |  | 
COc1cc(N2CCCc3ccc(S(=O)(=O)NC(C)=O)cc32)c2cc(C)c(=O)n(C)c2c1 [Example 199, N-((T-methoxy-1′,3′-dimethyl-2′-oxo-1′,2′,3,4-tetrahydro-2H-[1,5′-biquinolin]-7 yl)sulfonyl)acetamide] |  |  |  | % Inhibition (10 μM) ([1]; BRD4 FL, compound at 10 μM): 45%
COc1cc(N2CCCc3ccc(-c4cn[nH]c4)cc32)c2cc(C)c(=O)n(C)c2c1 [Example 198, 7′-Methoxy-1′,3′-dimethyl-7-(1H-pyrazol-4-yl)-3,4-dihydro-2H-[1,5′-biquinolin]-2′(1′H)-one] |  |  | 2010 to 5000 nM | 

Continued, in another order:

inhibition at 10 µM ([1]; BRD4 FL, compound at 10 μM) | IC50 [2] | IC50 ([1]; BRD4 FL) | Structure (SMILES) | other results
33% |  |  | COc1cc(N2CCN(C)c3cc(N4CCCC(NC(C)=O)C4)ncc32)c2cc(C)c(=O)n(C)c2c1 (stereo not drawn) [Example 122] | 
 | < 50 nM | 2010 to 5000 nM | Cc1cc2c(N3CCN(C)c4cc(-c5cnn(C(C)C)c5)ncc43)cc(N3CCOCC3)cc2n(C)c1=O [Example 136] | 
 | < 50 nM | 2010 to 5000 nM | COc1cc(N2CCCc3cc(-c4cnn(C)c4)ncc32)c2cc(C)c(=O)n(C)c2c1 [Example 167] | 
43% |  |  | Cc1cc2c(N3CCN(C)c4cc(N5CCCCC5)ncc43)cc(N3CCOCC3)cc2n(C)c1=O [Example 139] | 
 |  | 2010 to 5000 nM | Cc1cc2c(N3CCN(C)c4cc(C5CC5)ncc43)cc(N3CCOCC3)cc2n(C)c1=O [Example 138] | 
 | 51 to 100 nM | 2010 to 5000 nM | COc1cc(N2CCN(C)c3cc(C4CCN(C)CC4)c(C#N)cc32)c2cc(C)c(=O)n(C)c2c1 [Example 70, 4-(7-Methoxy-1,3-dimethyl-2-oxo-1,2-dihydroquinolin-5-yl)-1-methyl-7-(1-methylpiperidin-4-yl)-1,2,3,4-tetrahydroquinoxaline-6-carbonitrile] | 
16% | > 10 nM |  | Cc1cc2c(N3CCNc4cc(-c5cnn(C)c5)ncc43)cc(N3CCOCC3)cc2n(C)c1=O [Example 161, 1,3-Dimethyl-5-(7-(1-methyl-1H-pyrazol-4-yl)-2,3-dihydropyrido[3,4-b]pyrazin-4(1H)-yl)-7-morpholinoquinolin-2(1H)-one] | 
 | < 50 nM | 2010 to 5000 nM | Cc1cc2c(N3CCN(C)c4cc(-c5cnn(C)c5)ncc43)cc(N3CC(C)OC(C)C3)cc2n(C)c1=O (stereo not drawn) [Example 132] | 
 | 51 to 100 nM | 2010 to 5000 nM | Cc1cc2c(N3CCN(C)c4cc(-c5cnn(C)c5)ncc43)cc(N3C[C@@H](C)O[C@@H](C)C3)cc2n(C)c1=O [Example 133] | 
48% | 51 to 100 nM |  | Cc1cc2c(N3CCN(C)c4cc(-c5cnn(C)c5)ncc43)cc(OCC(F)F)cc2n(C)c1=O [Example 130] | 
 |  | 2010 to 5000 nM | Cc1cc2c(N3CCN(C)c4cc(-c5cnn(C)c5)ncc43)cc(N3CCCC(C#N)C3)cc2n(C)c1=O (stereo not drawn) [Example 149] | 
34% |  |  | COc1cc(N2CCN(C)c3cc(N4CCCC(C#N)C4)ncc32)c2cc(C)c(=O)n(C)c2c1 (stereo not drawn) [Example 120] | 
 |  | 2010 to 5000 nM | Cc1cc2c(N3CCN(C)c4ccc(S(N)(=O)=O)cc43)cc(N3CC[C@@H](O)C3)cc2n(C)c1=O [Example 92, (R)-4-(7-(3-Hydroxypyrrolidin-1-yl)-1,3-dimethyl-2-oxo-1,2-dihydroquinolin-5-yl)-1-methyl-1,2,3,4-tetrahydroquinoxaline-6-sulfonamide] | 
 |  | 2010 to 5000 nM | COc1cc(N2CCN(C)c3cc(N4CCN(C(C)=O)CC4)ncc32)c2cc(C)c(=O)n(C)c2c1 [Example 119] | 
26% |  |  | Cc1cc2c(N3CCN(C)c4cc(C5CCOC5)ncc43)cc(N3CCOCC3)cc2n(C)c1=O (stereo not drawn) [Example 137] | 
 | < 50 nM |  | COC(=O)c1cc2c(cc1-c1cnn(C)c1)N(C)CCN2c1cc(OC)cc2c1cc(C)c(=O)n2C [Example 34] | 
 | < 50 nM |  | CNC(=O)C1CCN(c2cc3c(cc2F)N(c2cc(N4CCOCC4)cc4c2cc(C)c(=O)n4C)CCN3C)CC1 [Example 49] | 
